Structures are written as SMILES. pIC50: −log10 of the molar value. Where only a bound is given, the exact number is not on record here.

Usually pIC50 stands for −log10 of the IC50, conventionally taken in molar units. For orientation: inhibition means how much of the control response was suppressed. A high value points to a response far below the control.

One test has as its target T1, Interstitial collagenase (Homo sapiens, UniProt P03956).
T1 sequence (P03956 whole entry): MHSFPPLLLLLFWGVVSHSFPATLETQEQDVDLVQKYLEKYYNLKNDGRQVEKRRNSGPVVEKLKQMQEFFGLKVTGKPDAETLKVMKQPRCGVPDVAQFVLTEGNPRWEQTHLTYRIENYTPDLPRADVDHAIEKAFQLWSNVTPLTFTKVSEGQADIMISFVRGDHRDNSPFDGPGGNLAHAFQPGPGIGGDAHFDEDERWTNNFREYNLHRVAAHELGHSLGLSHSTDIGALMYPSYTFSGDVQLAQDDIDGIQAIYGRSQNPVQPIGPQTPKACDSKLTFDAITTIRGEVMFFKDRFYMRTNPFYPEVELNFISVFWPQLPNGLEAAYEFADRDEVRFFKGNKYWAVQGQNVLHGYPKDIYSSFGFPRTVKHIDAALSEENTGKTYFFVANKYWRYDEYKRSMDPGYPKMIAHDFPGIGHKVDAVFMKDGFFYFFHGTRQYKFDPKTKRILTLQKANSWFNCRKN
As to the kind of experiment: Inhibitory concentration against Matrix metalloprotease-1 (MMP-1).

The target of the next test is Collagenase 3 (Homo sapiens, UniProt P45452). As to the kind of experiment: Inhibitory concentration against Matrix metalloprotease-13 (MMP-13).
The next test relates to Cell line. As to the kind of experiment: Inhibitory concentration against TNF-alpha release in LPS-stimulated human whole blood. The test is classed as functional, cell-based.
Test [1] in a line: Inhibitory concentration against Aggrecanase.
Test [2] has as its target Disintegrin and metalloproteinase domain-containing protein 17 (Homo sapiens, UniProt P78536). Put plainly: Inhibitory concentration against TNF-alpha converting enzyme.
Test [3] can be described thus: Percent inhibition against Aggrecanase at 500 nM.

Sequence of Disintegrin and metalloproteinase domain-containing protein 17 (P78536 whole entry, the tested form may be a part): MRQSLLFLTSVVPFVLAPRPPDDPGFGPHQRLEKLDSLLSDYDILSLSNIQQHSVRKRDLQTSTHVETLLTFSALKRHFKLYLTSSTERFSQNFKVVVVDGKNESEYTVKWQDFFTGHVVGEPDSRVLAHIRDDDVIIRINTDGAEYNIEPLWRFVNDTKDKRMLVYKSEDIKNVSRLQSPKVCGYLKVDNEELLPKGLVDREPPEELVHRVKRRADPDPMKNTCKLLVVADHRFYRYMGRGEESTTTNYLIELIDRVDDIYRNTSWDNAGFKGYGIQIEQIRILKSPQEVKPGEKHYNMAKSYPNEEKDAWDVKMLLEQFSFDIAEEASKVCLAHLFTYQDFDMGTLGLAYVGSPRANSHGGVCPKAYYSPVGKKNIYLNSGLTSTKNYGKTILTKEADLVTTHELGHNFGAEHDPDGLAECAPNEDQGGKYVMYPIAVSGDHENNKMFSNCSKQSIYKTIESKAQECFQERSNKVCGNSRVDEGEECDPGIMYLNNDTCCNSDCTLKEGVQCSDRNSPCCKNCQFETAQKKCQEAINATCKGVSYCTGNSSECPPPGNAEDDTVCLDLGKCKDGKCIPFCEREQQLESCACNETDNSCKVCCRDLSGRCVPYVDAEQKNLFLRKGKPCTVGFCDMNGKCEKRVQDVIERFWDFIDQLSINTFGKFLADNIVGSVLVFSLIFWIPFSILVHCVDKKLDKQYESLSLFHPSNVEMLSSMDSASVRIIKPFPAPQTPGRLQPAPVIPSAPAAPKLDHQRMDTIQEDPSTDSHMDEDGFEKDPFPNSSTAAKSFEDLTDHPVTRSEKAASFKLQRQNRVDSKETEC

As for `CC1(C)C[C@@H](O)CN(S(=O)(=O)c2ccc(OCc3ccc(F)cc3Cl)cc2)[C@H]1C(=O)NO`, the figures for the pIC50 at Interstitial collagenase, against Collagenase 3 and with Cell line were 6.23, 9.30 and 4.99, respectively.
With `Cc1ccc(F)cc1COc1ccc(S(=O)(=O)N2C[C@H](O)CC(C)(C)[C@@H]2C(=O)NO)cc1`, the pIC50 in test [1] is 7.40; on Interstitial collagenase it was 6.10; at Collagenase 3, 8.19; in test [2], 8.14; in the test with Cell line, 5.46.
As to `CC1(C)C[C@@H](O)CN(S(=O)(=O)c2ccc(OCc3ccnc4ccccc34)cc2)[C@H]1C(=O)NO`, the pIC50 in test [1] is 7.82; against Interstitial collagenase, 6.77; on Collagenase 3, 8.11; in the test on Cell line, 6.02.
As for `CC1(C)C[C@@H](O)CN(S(=O)(=O)c2ccc(OCc3ccccc3Br)cc2)[C@H]1C(=O)NO`, the pIC50 was 7.80 in test [1]; 6.15 on Interstitial collagenase; 8.10 at Collagenase 3; 7.96 in test [2]; 5.05 in the test with Cell line.
`CC1(C)C[C@@H](O)CN(S(=O)(=O)c2ccc(OCc3cccc(Br)c3)cc2)[C@H]1C(=O)NO`: the pIC50 in test [2] is 7.82; in the test with Cell line, 4.72. In test [3], the inhibition was determined as 57%.
On to `CC(C)c1ccccc1COc1ccc(S(=O)(=O)N2C[C@H](O)CC(C)(C)[C@@H]2C(=O)NO)cc1`, for which the negative logarithm of the IC50 (pIC50) is 5.64 at Interstitial collagenase, 6.73 against Collagenase 3, 7.92 in test [2] and 5.74 in the test on Cell line. This compound showed an inhibition in test [3] of 78%.
`CC1(C)C[C@@H](O)CN(S(=O)(=O)c2ccc(OCc3nccc4ccccc34)cc2)[C@H]1C(=O)NO`: the pIC50 is less than 7.00 in test [1]; 6.54 at Interstitial collagenase; 7.28 at Collagenase 3; 8.00 in test [2]; 5.62 in the test on Cell line.
The corresponding values for `CC1(C)C[C@@H](O)CN(S(=O)(=O)c2ccc(OCc3ccc(Cl)cc3Cl)cc2)[C@H]1C(=O)NO` are 8.68, 6.37, 8.52, 7.72 and 4.51.
The corresponding values for `CCc1ccccc1COc1ccc(S(=O)(=O)N2C[C@H](O)CC(C)(C)[C@@H]2C(=O)NO)cc1` are 7.17, 5.82, 7.44, 8.17 and 5.96.
As for `Cc1cc(F)ccc1COc1ccc(S(=O)(=O)N2C[C@H](O)CC(C)(C)[C@@H]2C(=O)NO)cc1`, the pIC50 is 8.57 in test [1]; 6.59 against Interstitial collagenase; 8.46 against Collagenase 3; 8.28 in test [2]; 5.26 with Cell line.
The corresponding values for `Cc1c(F)cccc1COc1ccc(S(=O)(=O)N2C[C@H](O)CC(C)(C)[C@@H]2C(=O)NO)cc1` are 8.41, 6.17, 8.37, 7.77 and 5.54.
The corresponding values for `Cc1ccccc1COc1ccc(S(=O)(=O)N2C[C@H](O)CC(C)(C)[C@@H]2C(=O)NO)cc1` are 7.42, 6.16, 7.85, 8.14 and 5.31.
The like results for `Cc1cccc(COc2ccc(S(=O)(=O)N3C[C@H](O)CC(C)(C)[C@@H]3C(=O)NO)cc2)c1` were, in that order, less than 7.00, 6.11, 8.55, 7.92 and 4.59.
For `Cc1ncccc1COc1ccc(S(=O)(=O)N2C[C@H](O)CC(C)(C)[C@@H]2C(=O)NO)cc1`, the pIC50 in test [1] is 7.04; in test [2], 8.17; with Cell line, 5.70.
`Cc1ccc(COc2ccc(S(=O)(=O)N3C[C@H](O)CC(C)(C)[C@@H]3C(=O)NO)cc2)cc1`: the pIC50 on Interstitial collagenase was 6.70; on Collagenase 3 it was 8.92; in test [2] it was 7.96; in the test on Cell line, 4.72. The inhibition in test [3] worked out at 19%.
Take `CC1(C)C[C@@H](O)CN(S(=O)(=O)c2ccc(OCc3ccc(Br)cc3)cc2)[C@H]1C(=O)NO`: the pIC50 in test [1] was less than 7.00; against Interstitial collagenase it was 7.00; at Collagenase 3, 8.85; in test [2], 8.00; with Cell line, 5.11.
Consider `Cc1nscc1COc1ccc(S(=O)(=O)N2C[C@H](O)CC(C)(C)[C@@H]2C(=O)NO)cc1`, for which the pIC50 is 7.92 in test [2] and 5.28 in the test on Cell line. For the same compound, the inhibition in test [3] amounted to 76%.
Regarding `CC1(C)C[C@@H](O)CN(S(=O)(=O)c2ccc(OCc3ccncc3Cl)cc2)[C@H]1C(=O)NO`, the pIC50 in test [1] is 7.74; against Interstitial collagenase, 5.96; on Collagenase 3 it was 7.72; with Cell line, 4.99.
Take `Cc1cnsc1COc1ccc(S(=O)(=O)N2C[C@H](O)CC(C)(C)[C@@H]2C(=O)NO)cc1`: the results for the pIC50 (in test [2]; in the test on Cell line) were 7.80 and 5.31, respectively. Moreover, the inhibition in test [3] was determined as 55%.
In the case of `Cc1ccc(F)cc1COc1ccc(S(=O)(=O)N2C[C@H](O)CC[C@@H]2C(=O)NO)cc1`, the pIC50 in test [1] was 6.84; on Interstitial collagenase, 5.29; on Collagenase 3, 8.68; in test [2] it was 8.21; with Cell line it was 5.85.
